Measurements as given in the NIST ThermoML archive (doi:10.1016/j.jct.2015.03.022).
± gives the expanded uncertainty stated by the source.

Details: Crystal; DTA

Structure (SMILES)	Normal melting temperature
[Br-].[Li+] [lithium bromide]	551 ± 0.6 °C
[F-].[Li+] [lithium fluoride]	844 ± 0.6 °C
[Ag][I] [silver iodide]	559 ± 0.6 °C
